This assay concerns the target hTREM2 (Homo sapiens, UniProt Q9NZC2). Put plainly: TREM2 agonist potency by Syk phosphorylation (AlphaLisa) in HEK293T-hTREM2 cells, used for Examples 306-429. It counts as cell-based. Further details: expressed in transfected cells; host or cells: HEK293T (HEK293T-hTREM2 cells). Particulars: HEK293 Cells. The method, boiled down: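 HEK293T cells expressing human TREM2 and DAP12, plated 20-24 h before, were exposed to compounds for 45 min at room temperature, then lysed. Phospho-Syk read by AlphaLisa; % activation from a standard curve and EC50 from a four-parameter log(agonist) fit.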
On the technique in general: Alpha assays give light when donor and acceptor beads are brought close together.

Bounds are passed on as bounds.

Sequence of hTREM2 (Q9NZC2 19-230): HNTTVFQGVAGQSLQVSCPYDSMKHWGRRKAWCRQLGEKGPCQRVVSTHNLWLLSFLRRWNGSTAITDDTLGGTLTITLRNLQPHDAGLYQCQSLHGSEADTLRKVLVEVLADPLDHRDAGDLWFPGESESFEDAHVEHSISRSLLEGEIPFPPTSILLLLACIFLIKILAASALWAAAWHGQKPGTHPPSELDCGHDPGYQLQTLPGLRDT
Sequence of hTREM2 (O43914 22-113 partner): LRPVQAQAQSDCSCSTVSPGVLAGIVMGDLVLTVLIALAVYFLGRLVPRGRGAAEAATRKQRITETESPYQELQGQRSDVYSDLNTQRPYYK

In the case of `Cc1nc2nc(N3C[C@@H](C)O[C@@H](c4cnn(C5CC5)c4)C3)nc(-c3ccc(Cl)cc3F)c2nc1C` [Example 425, (2S,6R)-4-(4-(4-chloro-2-fluorophenyl)-6,7-dimethylpteridin-2-yl)-2-(1-cyclopropyl-1H-pyrazol-4-yl)-6-methylmorpholine], the EC50 (commonly the concentration needed to bring the measured effect to its halfway point) was at most 50 nM. On to `Cc1cc(C2CC(c3cc4nc(C)ccc4c(-c4ccc(F)cc4F)n3)CCO2)ccn1` (stereo not shown) [Example 326, 5-(2,4-difluorophenyl)-2-methyl-7-(2-(2-methylpyridin-4-yl)tetrahydro-2H-pyran-4-yl)-1,6-naphthyridine], for which the EC50 is at most 50 nM. `Cc1cnc2c(-c3ccc(F)cc3F)nc(N3C[C@@H](C)O[C@@H](c4cnn(C5CC5)c4)C3)cc2n1` (racemic) [Example 362, 2-(1-cyclopropyl-1H-pyrazol-4-yl)-4-(5-(2,4-difluorophenyl)-2-methylpyrido[3,4-b]pyrazin-7-yl)-6-methylmorpholine] had a half-maximal effective concentration (EC50) of at most 50 nM. In the case of `Cc1nc2nc(N3C[C@@H](C)O[C@@H](c4cnn(C5CC5)c4)C3)nc(C34CC(C(F)(F)F)(C3)C4)c2nc1C` [Example 411, (2S,6R)-2-(1-cyclopropyl-1H-pyrazol-4-yl)-4-(6,7-dimethyl-4-(3-(trifluoromethyl)bicyclo[1.1.1]pentan-1-yl)pteridin-2-yl)-6-methylmorpholine], the EC50 was at most 50 nM. For the molecule `Cc1cnc2c(-c3ccc(F)cc3F)nc([C@H]3CCO[C@@H](c4cnn(C5CC5)c4)C3)nc2n1` [Example 330, 2-[(2R,4S)-2-(1-cyclopropylpyrazol-4-yl)tetrahydropyran-4-yl]-4-(2,4-difluorophenyl)-7-methyl-pteridine], the EC50 is at most 50 nM. As to `Cc1cnc2c(-c3ccc(F)cc3F)nc(N3C[C@@H](C)O[C@@H](c4cnn(C5CC5)c4)C3)nc2n1` [Example 420, (2S,6R)-2-(1-cyclopropyl-1H-pyrazol-4-yl)-4-(4-(2,4-difluorophenyl)-7-methylpteridin-2-yl)-6-methylmorpholine], the EC50 is at most 50 nM.

The molecule `Cc1cc([C@H]2CN(c3nc(-c4ccc(Cl)c(F)c4F)c4nc(C)c(C)nc4n3)CCO2)ccn1` [Example 363, (S)-4-(4-(4-chloro-2,3-difluorophenyl)-6,7-dimethylpteridin-2-yl)-2-(2-methylpyridin-4-yl)morpholine] registered an EC50 of at most 50 nM.

For `Cc1nc2nc(N3C[C@@H](c4cnn(C5CC5)c4)O[C@@H](C)C3)nc(C34CC(C(F)(F)F)(C3)C4)c2nc1C` [Example 410, (2R,6S)-2-(1-cyclopropyl-1H-pyrazol-4-yl)-4-(6,7-dimethyl-4-(3-(trifluoromethyl)bicyclo[1.1.1]pentan-1-yl)pteridin-2-yl)-6-methylmorpholine], the EC50 was at most 50 nM. In turn, `Cc1nc2cc(N3CCOC(c4cnn(C5CC5)c4)C3)nc(-c3ccc(C(F)(F)F)nc3)c2nc1C` (stereo not shown) [Example 349, 2-(1-cyclopropyl-1H-pyrazol-4-yl)-4-(2,3-dimethyl-5-(6-(trifluoromethyl)pyridin-3-yl)pyrido[3,4-b]pyrazin-7-yl)morpholine] returned an EC50 of at most 50 nM. `Cc1nc2nc(N3CC(C)OC(c4cnn(C5CC5)c4)C3)nc(C34CC(C(F)(F)F)(C3)C4)c2nc1C` (stereo not shown) [Example 356, 2-(1-cyclopropyl-1H-pyrazol-4-yl)-4-(6,7-dimethyl-4-(3-(trifluoromethyl)bicyclo[1.1.1]pentan-1-yl)pteridin-2-yl)-6-methylmorpholine] gave an EC50 of at most 50 nM. Molecule `Cc1cnc2c(C34CC(C(F)(F)F)(C3)C4)nc(N3C[C@H](C)O[C@@H](c4cnn(C5CC5)c4)C3)nc2n1` [Example 404, (2S,6S)-2-(1-cyclopropyl-1H-pyrazol-4-yl)-6-methyl-4-(7-methyl-4-(3-(trifluoromethyl)bicyclo[1.1.1]pentan-1-yl)pteridin-2-yl)morpholine] showed an EC50 of at most 50 nM. Take `Cc1nc2cc(N3CCO[C@H](c4cnn(C5CC5)c4)C3)nc(-c3ccc(C(F)(F)F)nc3)c2nc1C` [Example 385, (2R)-2-(1-cyclopropylpyrazol-4-yl)-4-[2,3-dimethyl-5-[6-(trifluoromethyl)-3-pyridyl]pyrido[3,4-b]pyrazin-7-yl]morpholine]: the half-maximal effective concentration (EC50) is 50 to 500 nM. The value for `Cc1nc2nc([C@@H]3CCO[C@@H](c4cnn(C5CC5)c4)C3)nc(-c3ccc(C(F)(F)F)cc3F)c2nc1C` [Example 412, 2-((2R,4R)-2-(1-cyclopropyl-1H-pyrazol-4-yl)tetrahydro-2H-pyran-4-yl)-4-(2-fluoro-4-(trifluoromethyl)phenyl)-6,7-dimethylpteridine] was 50 to 500 nM. Regarding `Cc1cnc2c(-c3ccc(F)cc3F)nc([C@H]3CCO[C@H](c4cnn(C5CC5)c4)C3)nc2n1` [Example 339, 2-((2S,4S)-2-(1-cyclopropyl-1H-pyrazol-4-yl)tetrahydro-2H-pyran-4-yl)-4-(2,4-difluorophenyl)-7-methylpteridine], the EC50 lay within 50 to 500 nM. The figure for `Cc1nc2nc([C@@H]3CCO[C@@H](c4cnn(C5CC5)c4)C3)nc(-c3ccc(F)cc3Cl)c2nc1C` [Example 321, 4-(2-chloro-4-fluorophenyl)-2-((2R,4R)-2-(1-cyclopropyl-1H-pyrazol-4-yl)tetrahydro-2H-pyran-4-yl)-6,7-dimethylpteridine] is 50 to 500 nM. `Cc1cnc2c(C34CC(C(F)(F)F)(C3)C4)nc([C@H]3CCO[C@@H](c4cnn(C5CC5)c4)C3)nc2n1` [Example 407, 2-((2R,4S)-2-(1-cyclopropyl-1H-pyrazol-4-yl)tetrahydro-2H-pyran-4-yl)-7-methyl-4-(3-(trifluoromethyl)bicyclo[1.1.1]pentan-1-yl)pteridine]: the EC50 was at most 50 nM.

The record behind these values is patent US11884675B2, “Heterocyclic compounds as triggering receptor expressed on myeloid cells 2 agonists and methods of use” (AMGEN INC., priority 2020, dated 2024).
